Data published in patent publication US20120046251A1, “INHIBITORS OF SOLUBLE EPOXIDE HYDROLASE TO INHIBIT OR PREVENT NIACIN-INDUCED FLUSHING” (The Regents of the University of California, priority 2009, published 2012).
Each block holds one compound with its values, some of them ahead of it.

Legend:
[1] = biological target: T1, sEH (Homo sapiens, UniProt P34913); experiment: sEH inhibition, assay not specified; type: biochemical
T1 sequence (P34913 1-555): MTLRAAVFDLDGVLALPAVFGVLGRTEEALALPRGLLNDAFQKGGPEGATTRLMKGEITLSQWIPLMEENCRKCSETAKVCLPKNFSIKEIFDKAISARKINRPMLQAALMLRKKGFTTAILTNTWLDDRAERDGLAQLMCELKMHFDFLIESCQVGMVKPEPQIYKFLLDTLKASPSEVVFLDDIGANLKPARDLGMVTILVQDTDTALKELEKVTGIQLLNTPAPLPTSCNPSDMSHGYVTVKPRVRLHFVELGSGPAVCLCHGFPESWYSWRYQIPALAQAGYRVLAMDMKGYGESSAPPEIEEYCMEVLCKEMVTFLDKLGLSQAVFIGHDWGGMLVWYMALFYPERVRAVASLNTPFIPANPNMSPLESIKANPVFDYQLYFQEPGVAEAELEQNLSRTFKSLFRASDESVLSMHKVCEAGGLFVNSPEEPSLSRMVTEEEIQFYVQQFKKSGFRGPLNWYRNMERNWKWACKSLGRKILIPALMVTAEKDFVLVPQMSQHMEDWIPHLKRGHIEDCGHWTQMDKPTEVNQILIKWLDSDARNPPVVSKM
From the text: (§1) (Both the 1- and the 2-adamantyl ureas have been tested and have about the same high activity as an inhibitor of sEH.) Thus, isomers of adamantyl dodecyl urea are preferred inhibitors. It is further expected that N,N′-dodecyl-cyclohexyl urea (DCU), and other inhibitors of sEH, and particularly dodecanoic acid ester derivatives of urea, are suitable for use in the methods of the invention.

[2] = Metabolic stability, method not given; type: in vitro ADME
From the text: as §1

[3] = system: C57BL/6 mice; experiment: Niacin-induced flushing: laser Doppler ear blood flow in anesthetized mice; type: in vivo, mouse; conditions: for peak ear tissue perfusion after niacin (composite, FIG. 9): i.p. 30 minutes before niacin 30 mg/kg, TPAU 0.01-1 mg/kg, others 4 mg/kg
Description: For the experiments, mice were anesthetized using Nembutal (50 mg/kg) given by intraperitoneal (I.P.) injection. […]
Laser Doppler ear blood flow: The change in ear flow was measured using a laser doppler flowmeter (BLF 21, on loan from Transonic Systems, Inc., Ithaca, N.Y.). […] The laser doppler probe was fitted with a sleeve of 2 mm length plastic tubing and attached to a micromanipulator to standardize the depth of the tissue being measured. Blood flow was measured at 30 second intervals before and during exposure to compounds. Baseline blood flow was established by the average of measurements over 5 min prior to injection of drug or vehicle. Data were analyzed as a fraction of baseline.
Mice were anesthetized with Nembutal™ (50 mg/kg) and ear cutaneous perfusion was measured as explained above. Animals were then injected with a niacin solution (30 mg/kg, in physiological saline) and response (% tissue perfusion) after 3 minutes measured.

[4] = system: C57BL/6 mice; experiment: PGD2-induced vasodilation/flushing, ear perfusion in mice; type: in vivo, mouse
Description: Mouse Model: C57BL/6 mice were obtained from Charles River Laboratories (location). sEHi knockout mice were generated at UC Davis using the C57BL/6 background [EnayetAllah, et al., J Biol. Chem. (2008) 283(52):36592-8]. For the experiments, mice were anesthetized using Nembutal (50 mg/kg) given by intraperitoneal (I.P.) injection. […]
Laser Doppler ear blood flow: The change in ear flow was measured using a laser doppler flowmeter (BLF 21, on loan from Transonic Systems, Inc., Ithaca, N.Y.). As described by Cheng et al [Proc Natl Acad Sci (2006) 103(17):6682-7] the flow probe was placed against the ventral aspect of the right ear of the anesthetized mouse. The laser doppler probe was fitted with a sleeve of 2 mm length plastic tubing and attached to a micromanipulator to standardize the depth of the tissue being measured. Blood flow was measured at 30 second intervals before and during exposure to compounds. Baseline blood flow was established by the average of measurements over 5 min prior to injection of drug or vehicle. Data were analyzed as a fraction of baseline.

[5] = system: C57BL/6 mice; experiment: Eicosanoid analysis by LC-MS/MS in plasma/serum of mice given niacin +/- sEHi; type: in vivo, mouse
[6] = system: C57BL/6 mice; experiment: Eicosanoid analysis by LC-MS in ear tissue of mice given niacin +/- sEHi; type: in vivo, mouse; conditions: for products of the 5-lipoxygenase pathway in ear tissue: niacin 30 mg/kg subcutaneously, TPAU 3 mg/kg pre-treatment, FIG. 10
Description: Samples were spiked with a suite of odd chain length analogs (surrogates) then solvent extracted and partially purified by passing through a solid phase (SP) extraction column using Oasis HLB cartridges. The loaded column was washed with 2 mL 2.5 mM H2PO4+10% methanol and dried under vacuum. Target analytes were eluted with 2 mL of ethyl acetate. The collected extracts were evaporated to dryness under nitrogen, re-dissolved in a final volume of 100 μL with methanol containing deuterated isomers of internal standards including prostaglandins, thromboxanes, epoxides, diols, of arachidonic acid, which allows accurate surrogate recovery calculations and stored at −20° C. until analysis. A 10-20 μL aliquot of each sample was separated by reversed phase HPLC chromatography on a 150 mm×2 mm I.D. 5 μm particle size C18 column using a gradient of water-0.1% acetic acid and 89:11 acetonitrile/methanol (v/v)-0.1% acetic acid. […] The system was calibrated with a minimum of five calibration solutions containing analytical targets at concentrations ranging from 1 to 1000 nM. The analysis of each sample was repeated three times. Calibration check solutions were analyzed at a minimum frequency of 10 hours to ensure stability of the analytical calibration throughout a given analysis.
As the flushing effect of niacin is essentially local rather than systemic, the effect of niacin +/−sEHi on ear tissue prostaglandins were also examined by LC-MS.
Products of the 5-lipoxygenase pathway are generally considered pro-inflammatory.

[7] = 325 mg of aspirin, Dunn et al 1995; cited from earlier work
[8] = system: COX-2 / COX-1; conditions: cited from earlier work
[9] = biological target: T2, recombinant murine sEH (Mus musculus, UniProt P34914); experiment: Inhibition of recombinant murine sEH; type: biochemical
T2 sequence (P34914 1-554): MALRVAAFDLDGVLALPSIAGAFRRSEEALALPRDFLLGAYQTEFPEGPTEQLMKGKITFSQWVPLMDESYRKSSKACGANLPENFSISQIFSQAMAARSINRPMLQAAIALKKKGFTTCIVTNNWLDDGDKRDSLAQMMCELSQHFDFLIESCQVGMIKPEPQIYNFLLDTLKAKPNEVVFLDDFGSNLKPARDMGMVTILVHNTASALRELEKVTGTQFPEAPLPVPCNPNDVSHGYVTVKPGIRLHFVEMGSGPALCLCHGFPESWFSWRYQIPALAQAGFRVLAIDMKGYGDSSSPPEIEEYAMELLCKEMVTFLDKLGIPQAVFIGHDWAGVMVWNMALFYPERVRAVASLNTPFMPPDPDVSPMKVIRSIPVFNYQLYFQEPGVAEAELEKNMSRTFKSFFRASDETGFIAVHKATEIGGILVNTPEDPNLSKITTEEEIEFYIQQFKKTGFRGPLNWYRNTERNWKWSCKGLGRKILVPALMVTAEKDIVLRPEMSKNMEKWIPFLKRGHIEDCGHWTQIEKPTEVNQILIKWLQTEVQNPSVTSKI

[10] = system: mouse ear; experiment: Capsaicin applied to the mouse ear: tissue perfusion; type: in vivo
From the text: Tachyphylaxis to the flushing effect of niacin is well known, although the mechanism has not been elucidated. […] Tachyphylaxis to the vasodilatory effect of capsaicin is likely mediated by repetitive activation of transient receptor potential channels, in particular TRPV1, with resultant desensitization and internalization. See, Fan et al., J Biol Chem (2009) 284:27884-91; Myers, et al., Neuron (2007) 54:847-50. […] Subsequently, mice were exposed to capsaicin daily for 3 days (treated topically, 4 times per day), resulting in abolition of the acute vasodilatory response (i.e. tachyphylaxis to capsaicin). […] Although the exact sequence of events following niacin exposure is not clear it seems that niacin activates a number of targets simultaneously.

[11] = biological target: T1, sEH; experiment: Inhibition of recombinant human sEH; type: biochemical
[12] = niacin 30 mg/kg, wild type mice, FIG. 6

Compound: CCCCCCCCCCCCNC(=O)NC12CC3CC(CC(C3)C1)C2 [ADU, N-Adamantyl-N′-dodecyl urea]
- activity on sEH [1]: particularly high activity on sEH
- metabolic stability [2]: metabolically stable

Compound: CC(C)(C)c1ccc(/C=C/C(=O)Nc2ccc3c(c2)OCCO3)cc1 [AMG9810]
- flushing response to niacin ([3]; AMG9810 10 mg/kg IP, in the animal tested): abolished the flushing response to niacin
- flushing response to PGD2 ([4]; AMG9810 10 mg/kg IP, FIG. 12): blunted the biologic response to PGD2

Compound: O=C(NC1CCN(C(=O)C(F)(F)F)CC1)NC12CC3CC(CC(C3)C1)C2 [TPAU, N-(1-(2,2,2-trifluoroethanoyl)piperidin-4-yl)-N′-(adamant-1-yl)urea]
- peak perfusion after niacin ([3]; TPAU 0.05 mg/kg to 1 mg/kg, FIG. 8): significant reduction in peak perfusion
- flushing (% tissue perfusion 3 minutes after niacin) ([3]; TPAU 0.01 to 1 mg/kg, 1 hour prior to niacin 30 mg/kg, n=4-6): dose-dependently reduced flushing
- peak ear tissue perfusion after niacin (composite, FIG. 9) [3]: significantly reduced peak ear tissue perfusion
- dose giving total inhibition of flushing ([3]; mice, niacin 30 mg/kg): 0.3 mg/kg
- Ki50 for inhibition of niacin-induced flushing ([3]; mice, niacin 30 mg/kg, TPAU pre-treatment): approximately 0.01 mg/kg
- PGD2 levels with niacin + sEHi ([5]; TPAU 3 mg/kg, FIG. 5): did not result in the expected reduction in PGD2
- niacin-induced reduction of plasma EETs and ratio EETs/DHETs ([5]; sEHi TPAU 3 mg/kg, niacin 30 mg/kg, FIG. 1-3): counters this reduction in EETs
- PGD2-induced increase in perfusion ([4]; TPAU pretreatment at a concentration sufficient to inhibit niacin-induced perfusion increase, FIG. 4): did not limit the increase in perfusion with administration of PGD2
- products of the 5-lipoxygenase pathway in ear tissue [6]: limited or abrogated niacin-induced increases in products of the 5-lipoxygenase pathway

Compound: CC(=O)Oc1ccccc1C(=O)O [aspirin]
- peak ear tissue perfusion after niacin (composite, FIG. 9) [3]: significantly reduced peak ear tissue perfusion
- effectiveness against niacin flushing [7]: more effective than 165 mg of aspirin or 200 mg ibuprofen
- COX-2 (IC50)/COX-1 (IC50) ratio [8]: 0.32

- IC50 [9]: 1500 nM
- IC50 [11]: 1500 nM
Compound: COc1cc(CNC(=O)CCCC/C=C/C(C)C)ccc1O [capsaicin]
- vasodilatory response to niacin after capsaicin tachyphylaxis ([3]; capsaicin topically 4 times per day for 3 days, FIG. 11): blunted vasodilatory response
- flushing response to niacin after capsaicin tachyphylaxis plus acute topical capsaicin ([3]; repeated capsaicin then acute topical capsaicin prior to niacin injection): abolished
- ear tissue perfusion after topical capsaicin [10]: time-dependent increase in tissue perfusion

Compound: COc1ccc2c(c1)c(CC(=O)O)c(C)n2C(=O)c1ccc(Cl)cc1 [indomethacin]
- COX-2 (IC50)/COX-1 (IC50) ratio [8]: 33

Compound: O=C(O)c1cccnc1 [niacin, pyridine-3-carboxylic acid]
- increase in ear perfusion [3, 12]: ~400%
- time of peak ear perfusion after injection [3, 12]: approximately 4 minutes
- plasma levels of EETs (total EETs or ratio EETs/DHETs) ([5]; niacin 30 mg/kg subcutaneous alone): reduced plasma levels of EETs
- PGE2 levels in serum ([5]; niacin alone): without altering PGE2 levels
- increase of PGD2 levels in serum ([5]; niacin alone): approximately 100%
- ear tissue PGD2 level ([6]; LC-MS, unit not given): 33214
- products of the 5-lipoxygenase pathway in ear tissue [6]: increased products of the 5-lipoxygenase pathway
- increase of ear tissue PGD2 ([6]; niacin vs control, P=0.09): 21%

Compound: CNC(=O)c1cc(Oc2ccc(NC(=O)Nc3ccc(Cl)c(C(F)(F)F)c3)cc2)ccn1 [sorafenib]
- peak ear tissue perfusion after niacin (composite, FIG. 9) [3]: significantly reduced peak ear tissue perfusion
